The source of these data is US6462178B1, “G protein” (Yong Hou Wong, priority 1999, dated 2002).

Where two headings read alike, the source gives them in different places.

Assay [1] addresses T1, melatonin Mel1b receptor (Homo sapiens, UniProt P49286).
T1 construct: expressed in transfected cells; host or cells: COS-7
T1 sequence (P49286 1-362): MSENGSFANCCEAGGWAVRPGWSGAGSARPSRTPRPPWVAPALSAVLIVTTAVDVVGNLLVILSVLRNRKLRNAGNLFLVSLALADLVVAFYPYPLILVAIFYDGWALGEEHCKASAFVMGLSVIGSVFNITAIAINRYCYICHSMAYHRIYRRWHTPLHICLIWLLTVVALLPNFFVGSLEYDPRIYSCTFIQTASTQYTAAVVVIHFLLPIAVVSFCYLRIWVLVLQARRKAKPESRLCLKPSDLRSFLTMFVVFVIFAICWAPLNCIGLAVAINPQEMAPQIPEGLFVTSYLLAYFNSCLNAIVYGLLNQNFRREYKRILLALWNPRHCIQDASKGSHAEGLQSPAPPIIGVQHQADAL
The assay is described as follows: IP accumulation, melatonin Mel1b receptor coexpressed with Gα subunit in COS-7. It is filed as cell-based. The note with it: 1 μM 2-iodomelatonin; for IP Formation % Res.: relative to basal.

Assay [2] addresses T2, melatonin Mel1a receptor (Homo sapiens, UniProt P48039).
T2 construct: expressed in transfected cells; host or cells: COS-7
Nature of the assay: IP accumulation, melatonin Mel1a receptor coexpressed with Gα subunit in COS-7. Format: cell-based. The note with it: 1 μM 2-iodomelatonin; for IP Formation % Res.: relative to basal.

Assay [3] concerns the target T3, melatonin Mel1c receptor (Xenopus laevis, UniProt P49219).
T3 construct: expressed in transfected cells; host or cells: COS-7
T3 sequence (P49219 1-420): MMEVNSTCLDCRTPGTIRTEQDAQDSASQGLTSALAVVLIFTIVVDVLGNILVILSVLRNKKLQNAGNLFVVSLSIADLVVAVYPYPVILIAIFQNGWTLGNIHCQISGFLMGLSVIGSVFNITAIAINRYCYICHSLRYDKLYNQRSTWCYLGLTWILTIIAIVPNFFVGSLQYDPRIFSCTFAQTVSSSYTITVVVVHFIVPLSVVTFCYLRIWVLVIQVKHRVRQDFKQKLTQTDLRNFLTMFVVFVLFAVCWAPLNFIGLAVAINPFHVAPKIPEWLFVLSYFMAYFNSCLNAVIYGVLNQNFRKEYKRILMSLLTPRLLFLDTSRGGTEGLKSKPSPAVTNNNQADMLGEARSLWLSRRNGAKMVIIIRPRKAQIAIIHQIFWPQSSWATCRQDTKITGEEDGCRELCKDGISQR
Nature of the assay: IP accumulation, melatonin Mel1c receptor coexpressed with Gα subunit in COS-7. The note with it: for IP Formation Agonist / IP Formation % Res.: 1 μM 2-iodomelatonin; for IP Formation % Res.: relative to basal. It is filed as cell-based.

Assay [4] relates to α2-adrenergic receptor. The note with it: 1 μM UK14,304; for IP Formation % Res.: relative to basal.
Assay [5] has as its target complement C5a receptor.
Assay [6] has as its target formyl peptide (fMLP) receptor.
Assay [7] addresses δ-opioid receptor.
Assay [8] concerns the target δ-opioid receptor. The source holds these as a separate data set.
Assay [9] addresses T4, δ-opioid receptor (Homo sapiens, UniProt P41143).
T4 construct: expressed in transfected cells; host or cells: COS-7
Nature of the assay: IP accumulation, δ-opioid receptor coexpressed with Gα subunit in COS-7. It is filed as cell-based. The note with it: for IP Formation Agonist / IP Formation % Res.: 100 nM DPDPE; for IP Formation % Res.: relative to basal; for stimulation of IP formation: 100 nM.

Assay [10] addresses somatostatin-1 receptor (SSTR1).
Assay [11] addresses T5, complement C5a receptor (Homo sapiens, UniProt P21730).
T5 construct: expressed in transfected cells; host or cells: COS-7
T5 sequence (P21730 1-350): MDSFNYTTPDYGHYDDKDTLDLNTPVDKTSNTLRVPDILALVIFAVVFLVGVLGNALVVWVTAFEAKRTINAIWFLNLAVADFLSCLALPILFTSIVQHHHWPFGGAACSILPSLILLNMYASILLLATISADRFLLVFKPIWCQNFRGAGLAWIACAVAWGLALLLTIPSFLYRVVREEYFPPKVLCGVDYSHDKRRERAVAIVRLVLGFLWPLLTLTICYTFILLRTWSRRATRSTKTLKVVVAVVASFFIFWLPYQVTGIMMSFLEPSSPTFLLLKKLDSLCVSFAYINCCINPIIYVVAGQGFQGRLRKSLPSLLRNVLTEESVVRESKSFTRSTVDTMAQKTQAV
The assay is described as follows: IP accumulation, complement C5a receptor coexpressed with Gα subunit in COS-7. It is filed as cell-based. The note with it: 100 nM C5a; for IP Formation % Res.: relative to basal.

Assay [12] deals with melatonin Mel1a receptor.
Assay [13] concerns the target melatonin Mel1c receptor.
Assay [14] concerns the target T6, melatonin Mel1b receptor.
T6 sequence (P49286 whole entry, species assumed, looked up): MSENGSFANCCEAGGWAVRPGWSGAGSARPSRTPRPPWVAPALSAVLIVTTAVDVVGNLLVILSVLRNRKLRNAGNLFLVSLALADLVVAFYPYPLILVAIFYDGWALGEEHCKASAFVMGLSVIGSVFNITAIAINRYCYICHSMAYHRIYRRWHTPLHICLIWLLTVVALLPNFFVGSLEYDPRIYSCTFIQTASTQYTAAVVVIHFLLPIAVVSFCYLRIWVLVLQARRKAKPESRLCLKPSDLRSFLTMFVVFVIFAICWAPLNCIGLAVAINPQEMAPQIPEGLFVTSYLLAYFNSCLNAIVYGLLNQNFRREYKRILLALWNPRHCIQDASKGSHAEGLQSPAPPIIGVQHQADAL

Assay [15] addresses α2-adrenergic receptor.
Setting [16] is: COS-7, receptor + 16z25 chimera.
Where [17] appears, read: COS-7, receptor + 16z44 chimera.

T4 sequence (P41143 whole entry): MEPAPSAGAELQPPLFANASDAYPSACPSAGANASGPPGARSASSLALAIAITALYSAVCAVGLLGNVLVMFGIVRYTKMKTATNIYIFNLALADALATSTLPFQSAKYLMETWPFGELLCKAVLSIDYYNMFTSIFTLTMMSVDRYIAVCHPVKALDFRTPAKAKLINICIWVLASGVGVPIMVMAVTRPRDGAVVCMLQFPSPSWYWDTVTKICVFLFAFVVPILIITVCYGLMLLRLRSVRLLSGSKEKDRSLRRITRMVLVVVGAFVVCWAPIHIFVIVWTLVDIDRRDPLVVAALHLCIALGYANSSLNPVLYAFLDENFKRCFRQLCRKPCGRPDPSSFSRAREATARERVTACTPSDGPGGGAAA
T2 sequence (P48039 whole entry): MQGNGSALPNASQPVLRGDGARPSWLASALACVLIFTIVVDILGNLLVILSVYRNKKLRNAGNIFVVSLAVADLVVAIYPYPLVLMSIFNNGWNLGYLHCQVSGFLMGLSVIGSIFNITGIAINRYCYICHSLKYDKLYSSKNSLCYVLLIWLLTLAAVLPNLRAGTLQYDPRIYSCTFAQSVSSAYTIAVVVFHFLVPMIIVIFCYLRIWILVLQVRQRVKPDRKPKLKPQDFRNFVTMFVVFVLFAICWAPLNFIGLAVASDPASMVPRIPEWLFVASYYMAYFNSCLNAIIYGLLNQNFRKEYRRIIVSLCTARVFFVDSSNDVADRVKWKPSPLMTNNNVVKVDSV

As for `COc1ccc2[nH]c(I)c(CCNC(C)=O)c2c1` [2-iodomelatonin], the “IP Formation Agonist” value at melatonin Mel1b receptor [1] (setting [16]) was 108.3 ± 3.6; on melatonin Mel1b receptor [1] (setting [17]), 113.2 ± 7.3; on melatonin Mel1b receptor [1] (COS-7, receptor + Gα16), 31.7 ± 2.3; on melatonin Mel1a receptor [2] (setting [16]), 80.4 ± 4.0; on melatonin Mel1a receptor [2] (setting [17]) it was 91.9 ± 8.8; on melatonin Mel1a receptor [2] (COS-7, receptor + Gα16) it was 45.6 ± 6.0. Moreover, the “IP Formation Agonist” value at melatonin Mel1c receptor [3] (setting [16]) came to 42.5 ± 6.7; at melatonin Mel1c receptor [3] (setting [17]) it was 86.8 ± 7.0. The “IP Formation % Res.” value at melatonin Mel1b receptor [1] (setting [16]) came out at 155%; on melatonin Mel1b receptor [1] (setting [17]), 177%; at melatonin Mel1b receptor [1] (COS-7, receptor + Gα16), 195%; at melatonin Mel1a receptor [2] (setting [16]), 150%; on melatonin Mel1a receptor [2] (setting [17]) it was 171%; on melatonin Mel1a receptor [2] (COS-7, receptor + Gα16) it was 296%. The “IP Formation % Res.” value on melatonin Mel1c receptor [3] (setting [16]) was determined as 270%; on melatonin Mel1c receptor [3] (setting [17]), 307%; on melatonin Mel1c receptor [3] (COS-7, receptor + Gα16), 115%. Moreover, at melatonin Mel1c receptor [3] (COS-7, Mel1c + 16z44, read-out: EC50, formation of IP), the EC50 (in general, the midpoint of the concentration-response curve) is around 0.4 nM. In addition, the “stimulation of PLC activity” value on melatonin Mel1c receptor [3] (COS-7, Mel1c + Gα16, 0.03-100 nM) is on record as “did not stimulate PLC activity”.

For `Brc1c(NC2=NCCN2)ccc2nccnc12` [UK14,304], the “IP Formation Agonist” value with α2-adrenergic receptor [4] (setting [16]) is on record as 116.1 ± 8.8; with α2-adrenergic receptor [4] (setting [17]), 126.7 ± 1.5; with α2-adrenergic receptor [4] (COS-7, receptor + Gα16), 107.4 ± 9.6. Further, the “IP Formation % Res.” value in the assay on α2-adrenergic receptor [4] (setting [16]) is on record as 365%; with α2-adrenergic receptor [4] (setting [17]) it was 297%; in the assay on α2-adrenergic receptor [4] (COS-7, receptor + Gα16), 730%.

Consider C5a (ligand), for which the IP formation with agonist (cells coexpressing 16z44) (IP formation (unit not given)) with complement C5a receptor [5] was 87.4.

For “N-formylmethionyl-leucyl-phenylalanine (peptide)”, the IP formation with agonist (cells coexpressing 16z44) (IP formation (unit not given)) in assay [6] amounted to 91.6.

Turning to “[D-Ala^2,N-Me-Phe^4,Gly^5-ol]enkephalin (peptide)”, the IP formation with agonist (cells coexpressing 16z44) (IP formation (unit not given)) with µ-opioid receptor was 68.5.

On to [D-Pen^2,D-Pen^5]enkephalin (peptide), for which the IP formation with agonist (cells coexpressing 16z44) (IP formation (unit not given)) in the assay with δ-opioid receptor [7] is 122. In the assay with δ-opioid receptor [8], this molecule displayed an EC50 for IP formation (cells coexpressing 16z44) of 10 nM and an EC50 for IP formation (cells coexpressing Gα16) of 40 nM.

For the molecule [D-Pen^2,D-Pen^5]enkephalin [DPDPE], the “IP Formation Agonist” value is reported as 66.8 ± 7.1 on δ-opioid receptor [9] (setting [16]); 121.8 ± 9.1 on δ-opioid receptor [9] (setting [17]); 42.2 ± 6.1 on δ-opioid receptor [9] (COS-7, receptor + Gα16). Also, the “IP Formation % Res.” value on δ-opioid receptor [9] (setting [16]) is listed as 287%; on δ-opioid receptor [9] (setting [17]), 548%; at δ-opioid receptor [9] (COS-7, receptor + Gα16) it was 417%. In addition, the “maximal stimulation, 16z44-mediated relative to Gα16-mediated response” value on δ-opioid receptor [9] (COS-7, δ-opioid receptor) is “twice that of the Gα16-mediated response”. Moreover, the “DPDPE response (IP formation)” value on δ-opioid receptor [9] (COS-7, δ-opioid receptor + 16z3, 16z6 or 16z66) was “failed to mediate the DPDPE response”. The IP formation result at δ-opioid receptor [9] (COS-7, δ-opioid receptor + 30z16) was “doubled the IP formation”. Also, on δ-opioid receptor [9] (COS-7, δ-opioid receptor + 30z16z66), the “response to agonist-activated δ-opioid receptor (IP formation)” value was “unable to respond”. In addition, the “stimulation of IP formation” value at δ-opioid receptor [9] (COS-7 coexpressing Gα16 and δ-opioid receptor) was 3 fold; at δ-opioid receptor [9] (COS-7 coexpressing δ-opioid receptor with either 16z25 or 16z44) it was 3-4.5 folds. Besides, the “formation of IP” value on δ-opioid receptor [9] (COS-7 cotransfected with δ-opioid receptor and Gαz, agonist treatment) was “failed to evoke formation of IP”.

In the assay with bombesin receptor, bombesin (peptide) registered an IP formation with agonist (control cells without 16z44) (IP formation (unit not given)) of 149.

In assay [10], somatostatin (peptide) showed an EC50 for IP formation (cells coexpressing 16z44) of 3 nM and an EC50 for IP formation (cells coexpressing Gα16) of 20 nM.

As to vasopressin (peptide), the IP formation with agonist (cells coexpressing 16z44) (IP formation (unit not given)) with vasopressin V2 receptor is 59.8.

B1: C5a: complement C5a, agonist of the C5a receptor (protein, UniProt P01031 678-751, looked up)
C5a anaphylatoxin: TLQKKIEEIAAKYKHSVVKKCCYDGACVNNDETCEQRAARISLGPRCIKAFTECCVVASQLRANISHKDMQLGR
modifications: C5a anaphylatoxin
notes: complement C5a, agonist of the C5a receptor
Regarding B1, the “IP Formation Agonist” value was determined as 79.6 ± 6.5 with complement C5a receptor [11] (setting [16]); 87.4 ± 7.2 with complement C5a receptor [11] (setting [17]); 67.5 ± 8.1 with complement C5a receptor [11] (COS-7, receptor + Gα16). The “IP Formation % Res.” value with complement C5a receptor [11] (setting [16]) is on record as 432%; in the assay with complement C5a receptor [11] (setting [17]) it was 457%; with complement C5a receptor [11] (COS-7, receptor + Gα16), 608%.

B2: Gα16 (protein)
chain: MARSLTWRCCPWCLTEDEKAAARVDQEINRILLEQKKQDRGELKLLLLGPGESGKSTFIKQMRIIHGAGYSEEERKGFRPLVYQNIFVSMRAMIEAMERLQIPFSRPESKHHASLVMSQDPYKVTTFEKRYAAAMQWLWRDAGIRACYERRREFHLLDSAVYYLSHLERITEEGYVPTAQDVLRSRMPTTGINEYCFSVQKTNLRIVDVGGQKSERKKWIHCFENVIALIYLASLSEYDQCLEENNQENRMKESLALFGTILELPWFKSTSVILFLNKTDILEEKIPTSHLATYFPSFQGPKQDAEAAKRFILDMYTRMYTGCVDGPEGSKKGARSRRLFSHYTCATDTQNIRKVFKDVRDSVLARYLDEINLL
As to B2, the IP formation (PLC stimulation), % Res. with δ-opioid receptor [7] was determined as 417 % Res; with complement C5a receptor [5], 608 % Res; in the assay with vasopressin V2 receptor, 332 % Res; in assay [6], 566 % Res; with κ-opioid receptor it was 327 % Res; with µ-opioid receptor, 134 % Res. In addition, the IP formation (PLC stimulation), % Res. with melatonin Mel1a receptor [12] is 296 % Res; with melatonin Mel1c receptor [13], 115 % Res; in the assay with melatonin Mel1b receptor [14], 195 % Res; in the assay with α2-adrenergic receptor [15], 730 % Res.
